Assay results as given in article PMC3348334 (Bioorganic & medicinal chemistry letters, 2012).

Tested on: COX
Assay: COX activity inhibition at single concentration
Format: biochemical, human
Details: at 100 μM

With `O=C(O)c1cccc(Nc2ccc([N+](=O)[O-])c3ccccc23)c1` [Compound 2, 3-((4-nitronaphthalen-1-yl)amino)benzoic acid] the “inhibition of COX activity” value was “no significant inhibition”.
